Tests used:
[1] = molecular target: T1, Glucose-dependent insulinotropic receptor (Homo sapiens) (UniProt Q8TDV5); assay: Agonist activity at human GPR119 expressed in CHOK1 cells co-expressing CRE-luciferase incubated for 4 hrs by luciferase reporter gene assay relative to 100 nM AR231453; assay type: functional, cell-based
T1 sequence (whole entry): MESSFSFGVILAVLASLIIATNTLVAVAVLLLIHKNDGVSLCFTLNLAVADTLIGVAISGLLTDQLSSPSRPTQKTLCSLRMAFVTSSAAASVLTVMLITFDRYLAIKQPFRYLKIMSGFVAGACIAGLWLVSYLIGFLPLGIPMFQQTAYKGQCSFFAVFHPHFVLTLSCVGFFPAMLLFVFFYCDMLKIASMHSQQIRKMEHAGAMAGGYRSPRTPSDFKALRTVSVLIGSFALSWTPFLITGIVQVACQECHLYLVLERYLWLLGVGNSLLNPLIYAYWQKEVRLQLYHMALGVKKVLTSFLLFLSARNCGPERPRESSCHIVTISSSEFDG

[2] = molecular target: T2, Glucose-dependent insulinotropic receptor (Homo sapiens, UniProt Q8TDV5); assay: Agonist activity at human GPR119 expressed in CHOK1 cells co-expressing CRE-luciferase incubated for 4 hrs by luciferase reporter gene assay; assay type: functional, cell-based
T2 sequence (Q8TDV5 whole entry): T1 sequence (whole entry)

[3] = molecular target: T2, Glucose-dependent insulinotropic receptor; assay: Agonist activity at human GPR119 expressed in HEK293 cells by luciferase reporter gene assay; assay type: cell-based
Mus musculus [4] = assay: Reduction in blood glucose AUC in C57BL/6N mouse at 10 mg/kg dosed 25 mins before glucose challenge and measured over 120 mins post glucose […] by oral glucose tolerance test; assay type: functional; design: scale not given: the % may be the effect or the level left
[5] = Clearance in mouse liver microsomes; assay type: ADME, microsome; conditions: read-out: CLH
[6] = Clearance in human liver microsomes; assay type: ADME, microsome; conditions: read-out: CLH
[7] = Half life in mouse at 0.5 mg/kg, iv; assay type: ADME, organism-based; conditions: in vivo
CHO-K1 = assay: Cytotoxicity in CHOK1 cells by CCK8 assay; assay type: cell-based; conditions: Cricetulus griseus
[8] = Cmax in mouse at 10 mg/kg, po; assay type: ADME, organism-based; design: dose 10 mg/kg, route oral; conditions: in vivo
[9] = AUC in mouse at 10 mg/kg, po; assay type: ADME, organism-based; conditions: in vivo
[10] = Plasma clearance in mouse at 0.5 mg/kg, iv; assay type: ADME, organism-based
[11] = Oral bioavailability in mouse at 10 mg/kg; assay type: ADME, organism-based; conditions: in vivo
[12] = Volume of distribution at steady state in mouse at 0.5 mg/kg, iv; assay type: ADME, organism-based; conditions: in vivo, read-out: Vdss
[13] = Drug metabolism in human liver microsomes assessed as CYP450-mediated metabolism of ethyl group; assay type: ADME
[14] = Drug metabolism in mouse liver microsomes assessed as CYP450-mediated metabolism of ethyl group; assay type: ADME
Mus musculus [15] = assay: Reduction in blood glucose AUC in C57BL/6N mouse at 30 mg/kg dosed 25 mins before glucose challenge and measured over 120 mins post glucose […] by oral glucose tolerance test; assay type: functional; design: scale not given: the % may be the effect or the level left

| Structure (SMILES) | Emax [1] | EC50 ([2]; read-out: EC50) | microsomal CLint [5] | microsomal CLint [6] | further results |
| --- | --- | --- | --- | --- | --- |
| CC(C)(C)OC(=O)N1CCC(n2nnc3c(Nc4ccc(S(C)(=O)=O)cc4F)ncnc32)CC1 |  |  |  |  | EC50 [3]: 19 nM |
| CC(C)(C)OC(=O)N1CCC(c2c[nH]c3c(Nc4ccc(S(C)(=O)=O)cc4F)ncnc23)CC1 | 9% | > 1000 nM |  |  |  |
| CS(=O)(=O)c1ccc2c(c1)CCN2c1ncnc2c(C3CCN(c4ncccn4)CC3)coc12 | 196% | 512 nM |  |  |  |
| CS(=O)(=O)c1ccc2c(c1)CCN2c1ncnc2c(C3CCN(c4ncc(Cl)cn4)CC3)coc12 | 117% | 42 nM | 108 µL/min/mg | 113 µL/min/mg | Activity (Mus musculus [4]): 33%; half-life [7]: 306 min; IC50 (CHO-K1): > 10 µM; Cmax [8]: 2020 ng/mL; AUC [9]: 9390 ng·h/mL; clearance [10]: 6.5 mL/min/kg; bioavailability [11]: 37%; Vd [12]: 2.3 L/kg |
| CC(C)(C)OC(=O)N1CCC(c2coc3c(N4c5ccc(S(C)(=O)=O)cc5CC4(C)C)ncnc23)CC1 |  |  |  |  | EC50 [2]: Not Active |
| CC(O)c1cnc(N2CCC(c3coc4c(N5CCc6cc(S(C)(=O)=O)ccc65)ncnc34)CC2)nc1 (configuration not stated) | 33% | 586 nM | 66 µL/min/mg | 102 µL/min/mg |  |
| Cc1cnc(N2CCC(c3coc4c(N5CCc6cc(S(C)(=O)=O)ccc65)ncnc34)CC2)nc1 | 159% | 252 nM | 145 µL/min/mg | 349 µL/min/mg |  |
| CC(C)(C)OC(=O)N1CCC(c2noc3c(Nc4ccc(S(C)(=O)=O)cc4F)ncnc23)CC1 | 137% | 353 nM |  |  |  |
| CCc1cnc(N2CCC(c3coc4c(N5CCc6cc(S(C)(=O)=O)ccc65)ncnc34)CC2)nc1 | 154% | 41 nM | 187 µL/min/mg | 412 µL/min/mg | Drug metabolism [13]: Metabolite_Detected; Drug metabolism [14]: Metabolite_Detected |
| CCCc1cnc(N2CCC(n3nnc4c(Nc5ccc(S(C)(=O)=O)cc5F)ncnc43)CC2)nc1 |  |  |  |  | EC50 [3]: 82 nM |
| CC(=O)c1cnc(N2CCC(c3coc4c(N5CCc6cc(S(C)(=O)=O)ccc65)ncnc34)CC2)nc1 | 12% | 78 nM | 154 µL/min/mg | 74 µL/min/mg |  |
| CS(=O)(=O)c1ccc2c(c1)CCN2c1ncnc2c(C3CCN(c4ncc(O)cn4)CC3)coc12 | 145% | 391 nM | 107 µL/min/mg | 132 µL/min/mg |  |
| COc1cnc(N2CCC(c3coc4c(N5CCc6cc(S(C)(=O)=O)ccc65)ncnc34)CC2)nc1 | 186% | 310 nM | 189 µL/min/mg | 255 µL/min/mg |  |
| CC(C)(C)OC(=O)N1CCC(c2coc3c(N4CC(C)(C)c5cc(S(C)(=O)=O)ccc54)ncnc23)CC1 |  |  |  |  | EC50 [2]: Not Active |
| CS(=O)(=O)c1ccc2c(c1)CCN2c1ncnc2c(C3CCN(c4ncc(F)cn4)CC3)coc12 | 229% | 201 nM | 154 µL/min/mg | 257 µL/min/mg |  |

Second part, led by results:

| Emax [1] | EC50 ([2]; read-out: EC50) | microsomal CLint [5] | microsomal CLint [6] | Structure (SMILES) | further results |
| --- | --- | --- | --- | --- | --- |
| 6% | > 1000 nM |  |  | CN(c1ccc(S(C)(=O)=O)cc1F)c1ncnc2c(C3CCN(C(=O)OC(C)(C)C)CC3)coc12 |  |
| 3% | > 1000 nM |  |  | Cn1cc(C2CCN(C(=O)OC(C)(C)C)CC2)c2ncnc(Nc3ccc(S(C)(=O)=O)cc3F)c21 |  |
| 1% | 793 nM |  |  | CC(C)(C)OC(=O)N1CCC(c2coc3c(N4CCCc5cc(S(C)(=O)=O)ccc54)ncnc23)CC1 |  |
| 123% | 129 nM |  |  | CC(C)(C)OC(=O)N1CCC(c2coc3c(Nc4ccc(S(C)(=O)=O)cc4F)ncnc23)CC1 | Activity (Mus musculus [15]): 13% |
| 82% | 79 nM |  |  | CC(C)(C)OC(=O)N1CCC(c2csc3c(Nc4ccc(S(C)(=O)=O)cc4F)ncnc23)CC1 |  |
| 123% | 53 nM | 508 µL/min/mg | 550 µL/min/mg | CC(C)(C)OC(=O)N1CCC(c2coc3c(N4CCc5cc(S(C)(=O)=O)ccc54)ncnc23)CC1 |  |

— ChEMBL document CHEMBL4052704, “Optimization of a novel series of potent and orally bioavailable GPR119 agonists” (Bioorg Med Chem Lett, 2017)
